Measured values: patent US4036957A, “Phenoxy compounds in combinations to suppress gastric bleeding in aspirin therapy” (priority 1975, dated 1977)
Where two headings read alike, the source gives them in different places.

Tested on: aspirin-induced gastric bleeding
Assay: Prevention of aspirin-induced gastric bleeding in pyloric-ligated rats, i.p. test compound (Examples 1-22)
Format: in vivo, Female Sprague-Dawley rats
Conditions: for Gastric Bleeding Index: score 0 to 40
Protocol: The prevention of aspirin-induced bleeding in rats was determined by the following procedure. Female Sprague-Dawley rats weighing 150-180 g. were fasted for 24 hours on wire and divided into groups of six animals each. The rats were anesthetized and a ligature placed at the pyloric-duodenal junction. Groups serving as controls received normal saline (4.0 ml/kg, i.p.). […] Some of the compounds were tested at 50 mg/kg, i.p. The rats were sacrificed 60 min. after aspirin administration by cervical dislocation. The volume of the gastric contents was determined and compared against that produced with the same amount of aspirin for change in volume. […] (Gradation between 0 to 40 is on an even scale).

[1] = ip, 1 h, rat, 100 mg/kg i.p., aspirin 375 mg/kg p.o., read-out: Percent Decrease in Mucosal Bleeding vs Control
[2] = ip, rat, 100 mg/kg i.p. (column head states no dose), aspirin 375 mg/kg p.o., read-out: Vol. % Decrease in Gastric Secretion
[3] = rat, 100 mg/kg i.p. (column head states no dose), aspirin 375 mg/kg p.o.

Molecule	change in vivo at 100 mg/kg [1] [%]	change in vivo at 100 mg/kg [2] [%]	Gastric Bleeding Index [3]	further results
COc1ccc(Cl)cc1OCC(O)CO (centres unmarked) [Compound 7, 3-(5-chloro-2-methoxyphenoxy)-1,2-propanediol]	-49	-42	19.2	
OCC(O)COc1ccccc1 (centres unmarked) [Compound 2, 3-phenoxy-1,2-propanediol]			20.0	change in vivo at 100 mg/kg (Rattus norvegicus, ip, 1 h, read-out: Percent Decrease in Mucosal Bleeding vs Control): -14%; change in vivo at 100 mg/kg (Rattus norvegicus, ip, read-out: Vol. % Decrease in Gastric Secretion): -14.1%
Cc1ccc(Cl)cc1OCC(O)CO (centres unmarked) [Compound 11, 3-(5-chloro-2-methylphenoxy)-1,2-propanediol]	-10	-29.7	20.8	
COc1ccc(Cl)cc1OCC(C)O (centres unmarked) [Compound 6, 1-(5-chloro-2-methoxyphenoxy)-2-propanol]	-93	-42.2	1.7	
NC(=O)OCC(O)COc1ccc(Cl)cc1 (centres unmarked) [Compound 21, 3-(4-chlorophenoxy)-2-hydroxypropylcarbamate]	-78	-30.5	4.2	
COc1ccc(Cl)cc1OCC(O)COC(N)=O (centres unmarked) [Compound 13, 3-(5-chloro-2-methoxyphenoxy)-1,2-propanediol-1-carbamate]	-100	-57.6	0.0	
COc1ccccc1OCC(O)COC(=O)N(C)C (centres unmarked) [Compound 4, N,N-dimethyl 3-(2-methoxyphenoxy)-1,2-propanediol-1-carbamate]	-70	-35.2	11.7	
Cc1c(Cl)cccc1OCC(C)O (centres unmarked) [Compound 10, 1-(3-chloro-2-methylphenoxy)-2-propanol]	-40	-18.8	22.5	
O=C1NCC(COc2ccc(Cl)cc2Cl)O1 (centres unmarked) [Compound 16, 5-(2,4-dichlorophenoxymethyl)-2-oxazolidinone]	-100	-44.6	0.0	
1-(3,5-dimethyl)-2-hydroxypropyl-4-ethyl thiosemicarbazide [Compound 19]			0.0	Vol. % Decrease in Gastric Secretion [3]: -40.5%; Percent Decrease in Mucosal Bleeding vs Control (rat, 100 mg/kg i.p., aspirin 375 mg/kg p.o.): 100%
CCCCNCC(O)COc1ccccc1OC (centres unmarked) [Compound 14, 1-(n-butylamino)-3-(2-methoxyphenoxy)-2-propanol]	-70	-35.6	5.8	change in vivo at 50 mg/kg (ip, 1 h, rat, 50 mg/kg i.p., aspirin 375 mg/kg p.o., read-out: Percent Decrease in Mucosal Bleeding vs Control): -78%; Toxicity remark (rat, 100 mg/kg i.p.): Toxic
Cc1cc(Cl)ccc1OCC(C)OC(=O)NC(C)C (centres unmarked) [Compound 18, N-isopropyl 1-(4-chloro-2-methylphenoxy)-2-propylcarbamate]	-28	-29.3	19.2	
Cc1ccc(Cl)cc1OCC(O)COC(N)=O (centres unmarked) [Compound 9, 3-(5-chloro-2-methylphenoxy)-1,2-propanediol-1-carbamate]	-81	-36.6	7.2	
CN(C)CCNC(=O)N1CCC(Oc2cccc(Cl)c2)C1 (centres unmarked) [Compound 30, 3-(3-chlorophenoxy)-N-[2-(dimethylaminoethyl)carboxamide]-1-pyrrolidine]	-100			change in vivo at 30 mg/kg (ip, 1 h, rat, at 30 mg/kg (footnote b), read-out: Percent Decrease in Mucosal Bleeding vs Control): -97%; change in vivo at 30 mg/kg (ip, rat, at 30 mg/kg (footnote b), read-out: Vol. % Decrease in Gastric Secretion): -32.8%; Gastric Bleeding Index (rat, at 30 mg/kg (footnote b)): 0.8
Cc1cccc(Cl)c1OCC(C)OC(N)=O (centres unmarked) [Compound 17, 1-(6-chloro-2-methylphenoxy)-2-propylcarbamate]	-72	-36.5	7.5	
CNC(=O)N1CCC(Oc2cccc(Cl)c2)C1 (centres unmarked) [Compound 20, 3-(3-chlorophenoxy)-1-methylcarbamoyl-pyrrolidine]	-100	-31	0.0	
OCC(CO)Oc1ccccc1 [Compound 1, 2-phenoxy-1,3-propanediol]	-15		31.7	
COc1ccccc1OCC(C)O (centres unmarked) [Compound 5, 1-(2-methoxyphenoxy)-2-propanol]	-66	-42	12.5	
Cc1ccc(Cl)cc1OCC(C)O (centres unmarked) [Compound 12, 3-(5-chloro-2-methylphenoxy)-2-propanol]	-75	-35.9	5.8	
